From ChEMBL document CHEMBL1201862, “PubChem BioAssay data set” (2004)
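Where inhibition never reached the appropriate level, the endpoint shown equals the highest concentration tested. Otherwise, values were interpolated linearly from a five-concentration, 48-hour dose response in 96-well plates. GI50 marks 50% less growth.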 Activity calls are given as the source filed them. Cut-off read from the data, not from the text of the source: active = GI50 up to about 1.1 µM and inactive = higher.

Assays:
Experiment in all cases: growth of human tumour cells (NCI), 48 h
786-0 = system: 786-0
A498 = system: A498
A549 = system: A549
ACHN = system: ACHN
CAKI-1 = system: CAKI-1
CCRF-CEM = system: CCRF-CEM
COLO 205 = system: COLO 205
DLD-1 = system: DLD-1
DMS-114 = system: DMS-114
DMS-273 = system: DMS-273
EKVX = system: EKVX
HCC 2998 = system: HCC 2998
HCT-116 = system: HCT-116
HCT-15 = system: HCT-15
HL-60 = system: HL-60
HOP-62 = system: HOP-62
HT-29 = system: HT-29
IGROV-1 = system: IGROV-1
K562 = system: K562
KM12 = system: KM12
LOX IMVI = system: LOX IMVI
LXFL 529 = system: LXFL 529
M14 = system: M14
M19-MEL = system: M19-MEL
MOLT-4 = system: MOLT-4
Malme-3M = system: Malme-3M
NCI-H226 = system: NCI-H226
NCI-H23 = system: NCI-H23
NCI-H460 = system: NCI-H460
NCI-H522 = system: NCI-H522
OVCAR-3 = system: OVCAR-3
OVCAR-4 = system: OVCAR-4
OVCAR-5 = system: OVCAR-5
OVCAR-8 = system: OVCAR-8
RPMI-8226 = system: RPMI-8226
SF-268 = system: SF-268
SF-295 = system: SF-295
SF-539 = system: SF-539
SK-MEL-28 = system: SK-MEL-28
SK-MEL-2 = system: SK-MEL-2
SK-MEL-5 = system: SK-MEL-5
SK-OV-3 = system: SK-OV-3
SN12C = system: SN12C
SNB-19 = system: SNB-19
SNB-75 = system: SNB-75
SR = system: SR
SW-620 = system: SW-620
TK-10 = system: TK-10
U-251 = system: U-251
UACC-257 = system: UACC-257
UACC-62 = system: UACC-62
UO-31 = system: UO-31
HOP-18 = system: HOP-18
HOP-92 = system: HOP-92
KM-20L2 = system: KM-20L2
RXF 393 = system: RXF 393

CCOC(=O)C(Cc1ccccc1)NC(=O)c1ccc(/N=N/N(C)C)cc1 (stereo not drawn)
GI50 (786-0): > 100 µM (inactive) | GI50 (A498): > 100 µM (inactive) | GI50 (A549): > 100 µM (inactive) | GI50 (ACHN): > 100 µM (inactive) | GI50 (CAKI-1): > 100 µM (inactive) | GI50 (CCRF-CEM): > 100 µM (inactive) | GI50 (COLO 205): > 100 µM (inactive) | GI50 (DLD-1): > 100 µM (inactive) | GI50 (DMS-114): > 100 µM (inactive) | GI50 (DMS-273): > 100 µM (inactive) | GI50 (EKVX): > 100 µM (inactive) | GI50 (HCC 2998): > 100 µM (inactive) | GI50 (HCT-116): > 100 µM (inactive) | GI50 (HCT-15): > 100 µM | GI50 (HL-60): > 100 µM (inactive) | GI50 (HOP-62): > 100 µM (inactive) | GI50 (HT-29): > 100 µM (inactive) | GI50 (IGROV-1): > 100 µM (inactive) | GI50 (K562): > 100 µM (inactive) | GI50 (KM12): > 100 µM (inactive) | GI50 (LOX IMVI): > 100 µM (inactive) | GI50 (LXFL 529): > 100 µM (inactive) | GI50 (M14): > 100 µM (inactive) | GI50 (M19-MEL): > 100 µM (inactive) | GI50 (MOLT-4): > 100 µM (inactive) | GI50 (Malme-3M): > 100 µM (inactive) | GI50 (NCI-H226): > 100 µM (inactive) | GI50 (NCI-H23): > 100 µM (inactive) | GI50 (NCI-H460): > 100 µM (inactive) | GI50 (NCI-H522): > 100 µM (inactive) | GI50 (OVCAR-3): > 100 µM (inactive) | GI50 (OVCAR-4): > 100 µM (inactive) | GI50 (OVCAR-5): > 100 µM (inactive) | GI50 (OVCAR-8): > 100 µM (inactive) | GI50 (RPMI-8226): > 100 µM (inactive) | GI50 (SF-268): > 100 µM (inactive) | GI50 (SF-295): > 100 µM (inactive) | GI50 (SF-539): > 100 µM (inactive) | GI50 (SK-MEL-28): > 100 µM (inactive) | GI50 (SK-MEL-2): > 100 µM (inactive) | GI50 (SK-MEL-5): > 100 µM (inactive) | GI50 (SK-OV-3): > 100 µM (inactive) | GI50 (SN12C): > 100 µM (inactive) | GI50 (SNB-19): > 100 µM (inactive) | GI50 (SNB-75): > 100 µM (inactive) | GI50 (SR): > 100 µM (inactive) | GI50 (SW-620): > 100 µM (inactive) | GI50 (TK-10): > 100 µM (inactive) | GI50 (U-251): > 100 µM (inactive) | GI50 (UACC-257): > 100 µM (inactive) | GI50 (UACC-62): > 100 µM (inactive) | GI50 (UO-31): > 100 µM (inactive)

O=C(Nc1ccccc1[N+](=O)[O-])/C(=N/Nc1cccc(Cl)c1)c1c(O)c2ccccc2oc1=O
GI50 (786-0): > 100 µM (inactive) | GI50 (A498): > 100 µM (inactive) | GI50 (A549): > 100 µM (inactive) | GI50 (ACHN): > 100 µM (inactive) | GI50 (CAKI-1): > 100 µM (inactive) | GI50 (CCRF-CEM): 14.4 µM (inactive) | GI50 (COLO 205): 17.7 µM (inactive) | GI50 (DLD-1): 49.3 µM (inactive) | GI50 (DMS-114): 16.2 µM (inactive) | GI50 (DMS-273): 29.6 µM (inactive) | GI50 (EKVX): > 100 µM (inactive) | GI50 (HCC 2998): 84.1 µM (inactive) | GI50 (HCT-116): 22.9 µM (inactive) | GI50 (HCT-15): 58.1 µM | GI50 (HL-60): > 10 µM (inactive) | GI50 (HOP-18): > 100 µM (inactive) | GI50 (HOP-92): 23.6 µM (inactive) | GI50 (HT-29): > 100 µM (inactive) | GI50 (IGROV-1): 89.3 µM (inactive) | GI50 (K562): 25.2 µM (inactive) | GI50 (KM-20L2): > 100 µM (inactive) | GI50 (KM12): > 100 µM (inactive) | GI50 (LOX IMVI): > 100 µM (inactive) | GI50 (LXFL 529): 31 µM (inactive) | GI50 (M14): > 100 µM (inactive) | GI50 (M19-MEL): > 100 µM (inactive) | GI50 (MOLT-4): 48 µM (inactive) | GI50 (Malme-3M): 97.9 µM (inactive) | GI50 (NCI-H226): > 100 µM (inactive) | GI50 (NCI-H23): 24.9 µM (inactive) | GI50 (NCI-H460): 38.5 µM (inactive) | GI50 (NCI-H522): 30.5 µM (inactive) | GI50 (OVCAR-3): 35.4 µM (inactive) | GI50 (OVCAR-4): > 100 µM (inactive) | GI50 (OVCAR-5): > 100 µM (inactive) | GI50 (RXF 393): > 100 µM (inactive) | GI50 (SF-268): 28.9 µM (inactive) | GI50 (SF-295): > 100 µM (inactive) | GI50 (SF-539): > 100 µM (inactive) | GI50 (SK-MEL-28): > 100 µM (inactive) | GI50 (SK-MEL-2): > 100 µM (inactive) | GI50 (SK-MEL-5): 49.4 µM (inactive) | GI50 (SK-OV-3): > 100 µM (inactive) | GI50 (SNB-19): > 100 µM (inactive) | GI50 (SNB-75): > 100 µM (inactive) | GI50 (SR): 0.0357 µM (active) | GI50 (SW-620): 40.9 µM (inactive) | GI50 (TK-10): > 100 µM (inactive) | GI50 (UACC-257): 41.2 µM (inactive) | GI50 (UACC-62): 42.2 µM (inactive) | GI50 (UO-31): > 100 µM (inactive)
